Assay [1] addresses T1, TNKS1 (Homo sapiens, UniProt O95271).
T1 sequence (O95271 1-1327): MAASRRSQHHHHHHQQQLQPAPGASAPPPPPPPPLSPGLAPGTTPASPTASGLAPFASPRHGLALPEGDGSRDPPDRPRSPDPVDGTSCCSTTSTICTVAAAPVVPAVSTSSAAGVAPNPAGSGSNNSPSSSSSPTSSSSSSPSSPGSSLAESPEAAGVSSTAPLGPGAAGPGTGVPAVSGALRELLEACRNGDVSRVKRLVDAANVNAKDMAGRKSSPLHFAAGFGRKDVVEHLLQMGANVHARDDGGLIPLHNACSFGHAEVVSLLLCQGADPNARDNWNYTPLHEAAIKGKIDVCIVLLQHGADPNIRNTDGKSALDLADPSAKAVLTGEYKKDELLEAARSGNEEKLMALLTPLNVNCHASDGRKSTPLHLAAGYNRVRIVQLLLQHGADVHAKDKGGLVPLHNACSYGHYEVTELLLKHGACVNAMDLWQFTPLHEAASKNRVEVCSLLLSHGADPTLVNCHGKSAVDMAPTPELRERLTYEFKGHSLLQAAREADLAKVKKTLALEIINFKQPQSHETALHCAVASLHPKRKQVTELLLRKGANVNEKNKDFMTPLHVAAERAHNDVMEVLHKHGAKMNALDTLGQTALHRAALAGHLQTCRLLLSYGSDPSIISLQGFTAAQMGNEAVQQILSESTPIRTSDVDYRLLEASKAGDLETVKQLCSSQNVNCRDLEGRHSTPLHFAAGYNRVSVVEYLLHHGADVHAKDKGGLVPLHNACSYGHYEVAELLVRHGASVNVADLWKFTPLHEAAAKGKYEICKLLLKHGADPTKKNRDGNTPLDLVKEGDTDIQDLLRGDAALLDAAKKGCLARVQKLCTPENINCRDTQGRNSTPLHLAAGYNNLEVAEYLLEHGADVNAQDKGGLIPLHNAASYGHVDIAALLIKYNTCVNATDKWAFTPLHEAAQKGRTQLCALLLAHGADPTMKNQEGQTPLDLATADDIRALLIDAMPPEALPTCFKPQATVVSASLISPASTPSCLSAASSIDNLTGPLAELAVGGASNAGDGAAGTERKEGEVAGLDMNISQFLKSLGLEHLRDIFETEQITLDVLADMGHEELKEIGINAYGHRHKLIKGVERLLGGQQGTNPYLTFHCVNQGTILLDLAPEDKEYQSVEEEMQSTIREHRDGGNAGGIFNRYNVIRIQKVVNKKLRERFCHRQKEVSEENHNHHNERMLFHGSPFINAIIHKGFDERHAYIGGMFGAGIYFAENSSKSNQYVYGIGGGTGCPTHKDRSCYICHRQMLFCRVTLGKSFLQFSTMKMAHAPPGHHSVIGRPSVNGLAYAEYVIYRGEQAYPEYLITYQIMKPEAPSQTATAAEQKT
Nature of the assay: Modified TNKS1 Assay 2 (auto-parsylation, [3H]-NAD+ SPA). In kind it is biochemical. As to conditions: 6 nM TNKS1, 96 well. Here is the method: The potency of selected compounds according to the invention was assessed applying an modified in vitro inhibition assay. Here, the TNKS1 catalyzed NAD^+-dependent ribosylation of the enzyme itself (auto-parsylation) was detected using [^3H]-NAD^+ as substrate and applying the scintillation proximity assay (SPA) method to detect tritium-labeled, parsylated TNKS1. The intensity of the readout signal is proportional to the incorporated [^3H]-NAD^+. Inhibition of TNKS1 leads to a decreased incorporation of [^3H]-NAD^+ and consequently to a lower readout signal intensity. The concentration of a test compound which inhibits the enzyme activity by 50% (corresponds to half of the normed readout signal intensity) is reported as IC50.
The assay was conducted in a 96 well MTP format with the identical TNKS1 enzyme sample and NAD^+ sample as in the histone ribosylation assay with the following modifications: TNKS1 enzyme sample was diluted with a modified assay buffer (50 mM MES pH 7.0, 1 mM DTT, 0.01% Triton X-100) to a final concentration of 6 nM TNKS1 and 10×NAD^+ solution was diluted with the modified assay buffer (s. above) to a final 0.445×NAD^+ solution doped with 100 Bq/ul [^3H]-NAD^+[Catalog #NET443H050UC, Perkin Elmer, Waltham, Mass., USA]. Substrate solution (10 ul) was incubated with different test compound concentrations (2.5 ul in 10% DMSO in modified assay buffer) or control (2.5 ul 10% DMSO in modified assay buffer only) and enzyme (10 ul) over night at room temperature. Incorporated tritium was measured after addition of 50 ul SPA beads (1 mg/ml) [Catalog #RPNQ0095 20 mg/ml, Perkin Elmer, Waltham, Mass., USA; diluted 1:10 with Dulbecco's phosphate buffered saline, PBS Catalog #D8537, Sigma-Aldrich, Steinheim, Germany] and detection of the photon emission with a beta count plate reader [Wallac MicroBeta®, Perkin Elmer, Waltham, Mass., USA].

The subject of assay [2] is wildtype Wnt signaling cascade. As to the kind of experiment: HEK293 TOP Assay (Super TopFlash luciferase reporter, Wnt-3a stimulated). The conditions noted are these: Homo sapiens, HEK293, 16 h, HEK293 TOP reporter cell line, Wnt-3a at EC50, 16 hours incubation, compound dilution series 50 μM to 15 nM. Type of assay: cell-based. An outline of the steps: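 Compounds (50 μM down to 15 nM, 3.16-fold steps, in CAFTY buffer pH 7.4, 2 mM Ca2+, 0.01% BSA) tested in parallel on TOP and FOP HEK293 reporter lines to define selective wildtype Wnt inhibition. Pathway driven by recombinant human Wnt-3a applied at 2500–5 ng/ml in two-fold dilutions.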
(A reporter such as luciferase makes a cellular process visible.)

pIC50: −log10 of the molar value.

As usually defined, the pIC50 is the negative decadic logarithm of the IC50, by convention in mol/L. In the case of `CC1CCN(CC(C)(C)NC(=O)c2[nH]cnc2C(=O)Nc2ccc(NC(=O)c3ccc(F)cc3Cl)cc2)CC1` [Example 155, N^4-{4-[(2-chloro-4-fluorobenzoyl)amino]phenyl}-N^5-[2-methyl-1-(4-methylpiperidin-1-yl)propan-2-yl]-1H-imidazole-4,5-dicarboxamide], the pIC50 in assay [1] was 7.22; in assay [2], 6.18.
For `O=C(Nc1ccc(NC(=O)c2nc[nH]c2C(=O)NC(CO)CO)cc1)c1ccccc1Cl` [Example 157, N^4-{4-[(2-chlorobenzoyl)amino]phenyl}-N^5-(1,3-dihydroxypropan-2-yl)-1H-imidazole-4,5-dicarboxamide] the same measures were 5.92 and 5.08.
As to `CN1CCN(CCNC(=O)c2[nH]cnc2C(=O)Nc2ccc(NC(=O)c3ccccc3Cl)cc2)CC1` [Example 160, N^4-{4-[(2-chlorobenzoyl)amino]phenyl}-N^5-[2-(4-methylpiperazin-1-yl)ethyl]-1H-imidazole-4,5-dicarboxamide], the results for the pIC50 in assay [1] and in assay [2] were 7.10 and 6.24, respectively.
Turning to `CC1CCN(CCNC(=O)c2[nH]cnc2C(=O)Nc2ccc(NC(=O)c3ccc(F)cc3)cc2)CC1` [Example 164, N^4-{4-[(4-fluorobenzoyl)amino]phenyl}-N^5-[2-(4-methylpiperidin-1-yl)ethyl]-1H-imidazole-4,5-dicarboxamide], the pIC50 in assay [1] was 7.40; in assay [2], 6.04.
For `CC(C)(CNC(=O)c1[nH]cnc1C(=O)Nc1ccc(NC(=O)c2ccccc2Cl)cc1)N1CCCCC1` [Example 165, N^4-{4-[(2-chlorobenzoyl)amino]phenyl}-N^5-[2-methyl-2-(piperidin-1-yl)propyl]-1H-imidazole-4,5-dicarboxamide] the same measures were 7.52 and 6.54.
For `O=C(Nc1ccc(NC(=O)c2nc[nH]c2C(=O)NCCF)cc1)c1ccccc1Cl` [Example 166, N^4-{4-[(2-chlorobenzoyl)amino]phenyl}-N^5-(2-fluoroethyl)-1H-imidazole-4,5-dicarboxamide], in that order: 6.62 and 6.28.
For `CC1CCCCN1CCNC(=O)c1[nH]cnc1C(=O)Nc1ccc(NC(=O)c2ccc(F)cc2)cc1` (stereo not drawn) [Example 169, N^4-{4-[(4-fluorobenzoyl)amino]phenyl}-N^5-[2-(2-methylpiperidin-1-yl)ethyl]-1H-imidazole-4,5-dicarboxamide], in that order: 7.05 and 6.10.
Take `CC(C)(CN1CCCCC1)NC(=O)c1[nH]cnc1C(=O)Nc1ccc(NC(=O)c2ccccc2Cl)cc1` [Example 171, N^4-{4-[(2-chlorobenzoyl)amino]phenyl}-N^5-[2-methyl-1-(piperidin-1-yl)propan-2-yl]-1H-imidazole-4,5-dicarboxamide]: the pIC50 is 6.70 in assay [1] and 6.17 in assay [2].
For `O=C(Nc1ccc(NC(=O)c2nc[nH]c2C(=O)NCCF)cc1)c1ccc(F)cc1Cl` [Example 173, N^4-{4-[(2-chloro-4-fluorobenzoyl)amino]phenyl}-N^5-(2-fluoroethyl)-1H-imidazole-4,5-dicarboxamide], in that order: 7.52 and 6.57.
Regarding `O=C(Nc1ccc(NC(=O)c2nc[nH]c2C(=O)NCCN2CCCC2)cc1)c1ccc(F)cc1` [Example 176, N^4-{4-[(4-fluorobenzoyl)amino]phenyl}-N^5-[2-(pyrrolidin-1-yl)ethyl]-1H-imidazole-4,5-dicarboxamide], the pIC50 in assay [1] was 7.30; in assay [2], 6.47.
As to `CC(C)(CN1CCOCC1)NC(=O)c1[nH]cnc1C(=O)Nc1ccc(NC(=O)c2ccc(F)cc2)cc1` [Example 180, N^4-{4-[(4-fluorobenzoyl)amino]phenyl}-N^5-[2-methyl-1-(morpholin-4-yl)propan-2-yl]-1H-imidazole-4,5-dicarboxamide], the pIC50 in assay [1] is 5.40; in assay [2], 5.27.
For `CC(CNC(=O)c1[nH]cnc1C(=O)Nc1ccc(NC(=O)c2ccccc2Cl)cc1)N1CCCCC1` (stereo not drawn) [Example 182, N^4-{4-[(2-chlorobenzoyl)amino]phenyl}-N^5-[2-(piperidin-1-yl)propyl]-1H-imidazole-4,5-dicarboxamide], in that order: 8.00 and 6.19.
For `CC(C)(CN1CCCCC1)NC(=O)c1[nH]cnc1C(=O)Nc1ccc(NC(=O)c2ccc(F)cc2Cl)cc1` [Example 184, N^4-{4-[(2-chloro-4-fluorobenzoyl)amino]phenyl}-N^5-[2-methyl-1-(piperidin-1-yl)propan-2-yl]-1H-imidazole-4,5-dicarboxamide] the same measures were 7.52 and 6.09.
For `CN1CCN(C(C)(C)CNC(=O)c2[nH]cnc2C(=O)Nc2ccc(NC(=O)c3ccc(F)cc3Cl)cc2)CC1` [Example 187, N^4-{4-[(2-chloro-4-fluorobenzoyl)amino]phenyl}-N^5-[2-methyl-2-(4-methylpiperazin-1-yl)propyl]-1H-imidazole-4,5-dicarboxamide] the same measures were 7.30 and 6.46.
Take `O=C(Nc1ccc(NC(=O)c2nc[nH]c2C(=O)NCCCCN2CCCCC2)cc1)c1ccccc1Cl` [Example 189, N^4-{4-[(2-chlorobenzoyl)amino]phenyl}-N^5-[4-(piperidin-1-yl)butyl]-1H-imidazole-4,5-dicarboxamide]: the pIC50 in assay [1] was 6.66; in assay [2], 6.05.
For `O=C(Nc1ccc(NC(=O)c2nc[nH]c2C(=O)NCCN2CCC2)cc1)c1ccc(F)cc1` [Example 199, N^5-[2-(azetidin-1-yl)ethyl]-N^4-{4-[(4-fluorobenzoyl)amino]phenyl}-1H-imidazole-4,5-dicarboxamide] the same measures were 7.22 and 5.99.
For `O=C(Nc1ccc(NC(=O)c2nc[nH]c2C(=O)NCCCN2CCOCC2)cc1)c1ccccc1Cl` [Example 200, N^4-{4-[(2-chlorobenzoyl)amino]phenyl}-N^5-[3-(morpholin-4-yl)propyl]-1H-imidazole-4,5-dicarboxamide], in that order: 6.46 and 6.06.
For `O=C(Nc1ccc(NC(=O)c2nc[nH]c2C(=O)NCCCN2CCOCC2)cc1)c1ccc(F)cc1` [Example 206, N^4-{4-[(4-fluorobenzoyl)amino]phenyl}-N^5-[3-(morpholin-4-yl)propyl]-1H-imidazole-4,5-dicarboxamide] the same measures were 5.39 and 5.68.

(Values after US9884063B2, “Amido-substituted azole compounds” (Bayer Pharma Aktiengesellschaft, priority 2014, dated 2018).)
